One may read the melting point as the temperature of the solid-liquid transition.

For `CCOC(=O)c1cc2c(OCC(O)CNC(C)C)cc(C)cc2[nH]1` (stereo unspecified), the melting point lay within 163 to 165 °C. The figure for `O=C(Cc1ccccc1C(=O)O)Nc1cccc(/C=C/c2csc(C3CCC3)n2)c1` is 198 to 199 °C. Compound `Ic1ccc2c(c1)ncn2-c1cccc(-c2cncnc2)c1` returned a melting point of 197 to 199 °C. `CC(=NOCC1CC1)c1cc(Cl)ccc1NS(=O)(=O)C(F)(F)F` yielded a melting point of 53 to 54 °C. The figure for `CCC(=O)OCOC(=O)Nc1ccc(Cl)cc1` is 90 to 91 °C; for `COc1cc2c(Nc3ccc(Cl)cc3F)ncnc2cc1OCCCC(=O)N1CCN(C)CC1` it is 248 to 250 °C; for `CC(C)c1cccc(C(C)C)c1NC(=O)NC1CCCCC1c1ccccc1` (stereo unspecified) it is 225 to 226 °C.

Turning to `CC1(C(=O)C(=Cc2ccc(Cl)cc2Cl)n2cncn2)COCOC1`, the melting point was in the range of 133 to 135 °C. The figure for `CN(C1=NCCO1)c1ccc(C(O)(C(F)(F)F)C(F)(F)F)cc1` is 188 to 190 °C; for `C#Cc1cn(C2OC(CO)C(O)C2=C)c(=O)[nH]c1=O` (stereo unspecified) it is 172 to 174 °C; for `O=[N+]([O-])c1c(Br)nn(Cc2ccc(Cl)cc2)c1NCc1ccccc1` it is 139 to 141 °C.

In turn, `C=CCOn1c(=O)c2cc(F)c(N3CCCC3)cc2n(Cc2ccccc2)c1=O` registered a melting point of 148 to 150 °C. As for `CCCn1c(=O)c(/C=C/C(=O)OCC)c2n(c1=O)CCS2`, the figure is 140 to 141 °C; as for `O=C(Nc1ccc(-n2nc(C(F)(F)F)cc2C(F)(F)F)cc1)c1ccc(O)cc1`, more than 245 °C; as for `NNc1ccc(C(F)(F)F)c(Cl)c1Cl`, 79 to 80 °C.

Compound `COc1ccccc1OCCNCCCc1c[nH]c2ccccc12` yielded a melting point of 101 to 102 °C. `COC(=O)c1ccc(NC(C)=O)c(CC(=O)O)c1` yielded a melting point of 194 °C. As for `O=[N+]([O-])c1cc(F)c(-c2ccc(C(F)(F)F)cc2)cc1F`, the figure is 113 to 114 °C; as for `Nc1ncnc2c1ncn2OC(CO)COCP(=O)(O)O` (stereo unspecified), 222 to 225 °C. The figure for `O=C1Nc2cccc(-c3cccc(NC(=O)c4cccc(Br)c4)c3)c2/C1=C/c1ccc[nH]1` is 251 to 253 °C; for `CNc1ccc(F)cc1C(C)=O` it is 43 to 45 °C. `N#Cc1cnn(-c2ccc(F)cc2F)c1Cl` returned a melting point of 120 to 122 °C.

Compound `CC(C)c1cc(C(=O)NCc2ccccc2)c(N)s1` displayed a melting point of 170 to 172 °C. The figure for `O=c1cnc2c(NC(CO)CO)nc(SCc3cccc(C(F)(F)F)c3F)nc2[nH]1` is 244 to 245 °C; for `Cc1cc(C)n(Cc2ccc(Cl)c(Cl)c2)c(=O)c1C#N` it is 139 to 141 °C. As for `C/C(O)=C(\C#N)C(=O)Sc1ccccc1`, the figure is 106 to 108 °C; as for `Cc1oc(-c2ccccc2)nc1COc1cc(COc2ncccc2CO)on1`, 136 to 137 °C.

`CC(C(=O)O)c1c(-c2ccccc2)nn(-c2ccccc2)c1-c1ccccc1` (stereo unspecified) displayed a melting point of 95 to 99 °C.

Take `NC(=O)c1cccc(Oc2ccccc2)c1`: the melting point fell in the range of 127 to 128 °C. `COc1ccc(-c2cc(=Nc3c(C)cc(C)cc3C)n(C)c(SC)n2)cc1OC` displayed a melting point of 172 to 173 °C. As for `CC(C)(Cl)C(CNC(=O)c1ccc([N+](=O)[O-])o1)N=O` (stereo unspecified), the figure is 110 to 112 °C; as for `CCOC(=O)c1c(Cn2cnnc2)nc2sc(C)c(C)c2c1-c1ccc2c(c1)OCO2`, 96 to 98 °C; as for `Nc1cc(C(F)(F)F)nc(C(F)(F)F)c1`, 147 to 149 °C.

Consider `OC(CCl)COc1cccc2sncc12` (stereo unspecified), for which the melting point was in the range of 104 to 106 °C.

`CC(=O)Nc1cc(I)ccc1C(=O)O` displayed a melting point of 229 to 232 °C. As for `Fc1ccc(-c2[nH]c(C3CCCNC3)nc2-c2ccncc2)cc1` (stereo unspecified), the figure is 252 to 254 °C; as for `Cn1c(C(F)(F)F)cc(=O)n(-c2cc(S)c(Cl)cc2F)c1=O`, 132 °C.

Take `CN1CCN(c2ccc(-c3cnc4c(c3)N(Cc3c(F)ccc(F)c3Cl)CCN4)cn2)CC1`: the melting point is 219 °C. As for `Cc1ccc(S(=O)(=O)N2[C@@H](CCC#N)CC[C@H]2c2ccc(F)cc2)cc1` (racemic), the figure is 86 °C. The figure for `CON(C)C(=O)c1ccoc1` is 39 to 42 °C. The figure for `CC1(C)CCC(=O)CC1S(=O)(=O)c1ccccc1` (stereo unspecified) is 84 to 86 °C; for `O=C(O)Cn1c(Cc2ccccc2)ccc(NC(=O)CCCc2ccccc2)c1=O` it is 159 to 161 °C; for `COc1cc2c(cc1OC)C1C(Cl)=NC=NC1N2` (stereo unspecified) it is 148 to 150 °C. In the case of `CCOC(=O)c1cc2c(F)cc(F)cc2[nH]1`, the melting point is 153 to 154 °C. Consider `COc1cc(OC)nc(C(OC)(C(=O)NS(C)(=O)=O)c2ccccc2)n1` (stereo unspecified), for which the melting point fell in the range of 155 to 157 °C. `CCOC(=O)C1SCCN1C(=S)Nc1cc(Cl)cc(Cl)c1` (stereo unspecified) had a melting point of 170 to 172 °C. The figure for `COc1cccc(NC(=O)NC2N=C(c3ccccc3)c3ccc(C)cc3N(C)C2=O)c1` (stereo unspecified) is 184 to 188 °C; for `Clc1cc(Br)cnc1Br` it is 40 to 41 °C. As for `CCCc1nc(C(O)C(C)(C)C)c(C(N)=O)n1Cc1ccc(-c2ccccc2-c2nnn[nH]2)cc1` (stereo unspecified), the figure is 174 to 176 °C; as for `N#Cc1ccc(-c2ccc(-c3ccc(-c4ccc(C#N)cc4)o3)o2)cc1`, 298 to 299 °C. The figure for `CNC(=O)NCCCn1cc(Cn2ccnc2)c2ccccc21` is 123 to 124 °C; for `COC(=O)c1ccc2ncn(-c3ccc(OC)cc3)c2c1` it is 112 to 113 °C; for `CC(Cc1ccc(OCC(=O)O)c(F)c1)NS(=O)(=O)c1ccccc1` (stereo unspecified) it is 148 to 150 °C.

Compound `CCCCCC/C=C(\C(=O)Nc1ccc(C(=O)O)cc1)c1ccc2c(c1)C(C)(C)CCC2(C)C` displayed a melting point of 183 to 184 °C. `c1ccc2c(CCN=c3sc4ccccc4s3)c[nH]c2c1` returned a melting point of 149 to 150 °C. As for `COc1ccc(C(=O)Nc2ccc3ccc(S(=O)CCN(C)C)nc3n2)cc1` (stereo unspecified), the figure is 158 °C. The compound `CCn1c2ccccc2c2sccc(=O)c21` displayed a melting point of 103 to 104 °C. On to `CC(C)c1ccc(NC(=O)C2CCCc3c(OCc4ccccc4)ccc(F)c32)cn1` (stereo unspecified), for which the melting point came to 184 °C. The figure for `Nc1ccc(NCCc2ccccc2)cc1` is 247 °C.

Compound `Cc1c(OCC(=O)O)cc2c(c1Cl)C(=O)C1(CCCC1)C2=O` gave a melting point of 204 to 205 °C. The figure for `CC(C)=NOCc1nc2c(N)nc3ccccc3c2n1CC(C)C` is 194 to 195 °C; for `COc1cc(-c2nc3ccccc3n2Cc2cccc(C)c2)cc(OC)c1OC` it is 78 °C; for `C=CCc1cn(C2OC(CO)C(O)C2O)c(=O)nc1N` (stereo unspecified) it is 176 °C. Turning to `COCCOC(=O)c1c(F)cccc1S(=O)(=O)NC(=O)Nc1nc(OC)nc(OC)n1`, the melting point was 179 to 182 °C. As to `CCc1ccc2c(c1)C=Cc1cc(C)ccc1C2c1cn(Cc2ccc(C(=O)Nc3nnn[nH]3)o2)c(=O)[nH]c1=S` (stereo unspecified), the melting point worked out at 260 °C.

Regarding `O=C(CO)c1ccc(C(F)(F)F)cc1`, the melting point was 112 to 114 °C. As for `O=C(O)CCC/C=C\C[C@H]1[C@@H]2CC[C@@H](C2)[C@@H]1NC(=O)c1ccc(S(=O)(=O)n2cccc2)s1`, the figure is 113 to 114 °C; as for `CCOC(=O)COc1cc2cc(C(O)CC)sc2c(Cl)c1Cl` (stereo unspecified), 69 to 70 °C. The figure for `O=C(Nc1c(Cl)cc(C(F)(c2cccs2)C(F)(F)F)cc1Cl)c1cccc(NC(=O)c2c(F)cc(F)cc2F)c1F` (stereo unspecified) is 190 to 193 °C. As for `Cc1onc(-c2ccccc2)c1C(=O)NC1C(=O)N2C1SCC(C)(Cl)C2C(=O)O` (stereo unspecified), the figure is 210 °C; as for `O=C(Cl)c1cccc(C(=O)Cl)c1[N+](=O)[O-]`, 129 to 132 °C; as for `CC(C(=O)NO)S(=O)Cc1ccc(Cl)cc1` (stereo unspecified), 132 to 133 °C. Consider `Nc1ncc(C#Cc2ccc(Cl)cc2)c(N2CCOCC2)n1`, for which the melting point fell in the range of 193 to 194 °C. As for `CO[C@@H]1CN(CCCNc2nccc(=O)[nH]2)CC[C@@H]1NC(=O)c1cc(Cl)c(N)c2c1OC(C)(C)C2`, the figure is 164 °C; as for `c1csc(-c2noc(COc3ccc(CCCCn4ccnc4)cc3)n2)c1`, 94 to 95 °C.

`O=Cc1c2n(c3cc4c(cc13)OCO4)CCC2`: the melting point fell in the range of 169 to 170 °C. As for `COC(=O)c1ccc(OC(=C(Oc2ccc(C(=O)OC)cc2)C(F)(F)F)C(F)(F)F)cc1`, the figure is 123 °C; as for `COC1=CC(=O)C(OC)=C(CCCOCCC2=C(OC)C(=O)C=C(OC)C2=O)C1=O`, 129 to 130 °C; as for `CCCc1c(OC2CCCOC2)ccc2c(O)cc(=O)oc12` (stereo unspecified), 163 to 165 °C. The figure for `COc1cc(NC(=O)Nc2cccc3c2C2CC(=O)CCN2C3=O)nc2ccccc12` (stereo unspecified) is 223 to 225 °C; for `Cc1cc(SCc2ccc(OC3CCc4cc(Cl)ccc43)cc2)ccc1OCC(=O)O` (stereo unspecified) it is 130 to 131 °C; for `FC(F)(F)c1cccc(-c2ccc3nncn3n2)c1` it is 140 to 143 °C.

Take `Cc1ccc(NC(=O)c2ccc(/C=C/C(=O)NO)cc2)cc1Nc1nc(-c2cccnc2)cs1`: the melting point was found to be 154 °C. The figure for `COC(=O)Nc1cccc(C)c1CNc1cccn2c(C)c(C)nc12` is 136 to 138 °C; for `O=C(c1ccccc1)c1ccc(OCCc2c[nH]cn2)cc1` it is 193 to 194 °C. The figure for `Fc1cc2c(cc1F)C(n1cc[nH]c1=S)CC2` (stereo unspecified) is 183 to 187 °C.

`COC(=O)CCn1c(=O)n(CCN2CCN(c3cccc(Cl)c3)CC2)c(=O)c2cscc21` gave a melting point of 150 °C.

The compound `O=C(Nc1cc2nc(-c3ccc(C(=O)C4CCCCCC4)cc3)[nH]c2cn1)C1CCCCCC1` registered a melting point of 194 °C.

As for `O=C(NCC1CCN(C(c2ccccc2)c2ccccc2)CC1)c1cc(F)ccc1[N+](=O)[O-]`, the melting point lay in the range of 164 to 166 °C.

`Cc1nc(C)c(-c2ccnc(Nc3cccc([N+](=O)[O-])c3)n2)s1` had a melting point of 176 to 178 °C.

Consider `CC(C)N(Sc1nc2ccccc2s1)C(C)C`, for which the melting point lay within 57 to 59 °C.
